Reference: patent US8916516B2, “Treatment of fungal and/or protist infections” (AI2 Limited, priority 2005, dated 2014)
Where two headings read alike, the source gives them in different places.

Columns and labels:
[1] = test system: Aspergillus terreus (clinical isolate); test: microbe, parasite or virus in culture; type: cell-based
Experimental: (§1) Four compounds were supplied as an aqueous solution, 400 μM. Serial dilutions of each test peptide were prepared in addition to a control, which was a conventional antifungal drug, Amphoteracin B. Amphteracin B is obtained from Invitrogen or Melford laboratories.
(§2) Initial testing of the peptides was carried out against the following organisms: • 1) Aspergillus fumigatus AF293 (culture collection strain NCPF7367) • 2) Candida albicans 6862 (clinical isolate) • 3) Fusarium spp 5889 (clinical isolate) • 4) Fusarium spp 6507 (clinical isolate) • 5) Aspergillus terreus (clinical isolate) • 6) Aspergillus niger (clinical isolate) • 7) Staphylococcus aureus (Oxford strain, which is a standard reference strain used in MIC testing)
(§3) The bacterium S. aureus was tested with each of the peptides as a control. A suspension of each organism in an appropriate growth medium was added to the, dilutions of the peptides in order to give concentration ranges of 40 μM to 0.04 μM for each of the peptides, and 64-0.025 μg/ml for amphotericin B. Fungal strains were tested in RPMI media. RPMI is standard Roswell Park Memorial Institute medium (Morton, H. C., (1970) A survey of Commercially Available Tissue Culture Media. In Vitro 6: 89-108).
(§4) Candida and S. aureus plates were read after 24 hrs incubation and the Aspergillus and Fusarium strains read after 48 hrs. The MIC was taken as the lowest drug or compound concentration that caused >80% reduction in growth compared with a drug free control.

[2] = test system: Aspergillus niger (clinical isolate); test: microbe, parasite or virus in culture; type: cell-based
Experimental: as §1, §2, §3, §4

Fusarium solani 3 (FS3) = test: Antifungal MIC (Example 4); type: cell-based; parameters: MIC values (>80% reduction) FS3, positive control: unit not given beside the values; conditions: for MIC values (>80% reduction) FS3: Fusarium solani 3, peptides, Tables 4 and 5
Experimental: (§5) The inventor expanded the work conducted in Example 1 by testing an expanded library of peptides derived from either apolipoprotein B or apolipoprotein E in order to further evaluate polypeptides in accordance with the invention. These experiments were conducted using the following fungal species:
(§6) FS1-FS4 were obtained from Bristol PHLS (British Public Health Laboratory Service UK). Aspergillus fumigatus 293 is publicly available as culture collection strain NCPF7367 (National Collection of Pathogenic Fungi Public Health Laboratory, Mycological Reference Laboratory Myrtle Road, Kingsdown, Bristol BS2 8EL) The Candida albicans was a clinical isolate obtained by standard means.
(§7) The methods used to determine, the IC50 values for each peptide were as described in the Example 1.

[3] = test system: Candida albicans 6862 (clinical isolate); test: microbe, parasite or virus in culture; type: cell-based
Experimental: as §1, §2, §3
(§8) The final inoculum for S. aureus was 5×10^4 cfu/ml. The final inoculum for C. albicans was 2×10^3 cfu/ml. The final inoculum for Aspergillus fumigatus and for Fusarium spp was 2×10^4 cfu/ml.
as §4

[4] = test system: Staphylococcus aureus (Oxford strain); test: microbe, parasite or virus in culture; type: cell-based
Experimental: as §1, §2, §3
S. aureus was tested in Isosensitest broth. Isosentitest agar is a standard MIC medium used by many hospital labs for bacterial MICs using a disc diffusion method. The reference standard is Oxoid CM471. Also available in broth form, CM473, for the bacterial broth dilution assay method. NCCLS ref M7-A4. Both the NCCLS methods quoted are the standard methods.
as §8, §4

Fusarium solani 1 (FS1) = test: Antifungal MIC (Example 4); type: cell-based; parameters: MIC values (>80% reduction) FS1, positive control: unit not given beside the values; conditions: for MIC values (>80% reduction) FS1: Fusarium solani 1, peptides, Tables 4 and 5
Experimental: as §5, §6, §7

Fusarium solani 4 (FS4) = test: Antifungal MIC (Example 4); type: cell-based; parameters: MIC values (>80% reduction) FS4, positive control: unit not given beside the values; conditions: for MIC values (>80% reduction) FS4: Fusarium solani 4, peptides, Tables 4 and 5
Experimental: as §5, §6, §7

[5] = test system: Fusarium spp 6507 (clinical isolate); test: Antifungal MIC broth dilution (Example 1); type: cell-based; conditions: RPMI, 48 hrs, >80% reduction
Experimental: as §1, §2, §3, §8, §4

[6] = test system: Fusarium spp 5889 (clinical isolate); test: Antifungal MIC broth dilution (Example 1); type: cell-based; conditions: RPMI, 48 hrs, >80% reduction
Experimental: as §1, §2, §3, §8, §4

[7] = test system: Aspergillus fumigatus AF293 (NCPF7367); test: microbe, parasite or virus in culture; type: cell-based; parameters: MIC values (>80% reduction) AF, positive control: unit not given beside the values; conditions: for MIC values (>80% reduction) AF: Aspergillus fumigatus 293, peptides, Tables 4 and 5
Experimental: as §1, §2, §3, §8, §4
Aspergillus fumigatus 293 (AF); and
FS1-FS4 were obtained from Bristol PHLS (British Public Health Laboratory Service UK). Aspergillus fumigatus 293 is publicly available as culture collection strain NCPF7367 (National Collection of Pathogenic Fungi Public Health Laboratory, Mycological Reference Laboratory Myrtle Road, Kingsdown, Bristol BS2 8EL) The Candida albicans was a clinical isolate obtained by standard means. […]

Fusarium solani 2 (FS2) = test: Antifungal MIC (Example 4); type: cell-based; parameters: MIC values (>80% reduction) FS2, positive control: unit not given beside the values; conditions: for MIC values (>80% reduction) FS2: Fusarium solani 2, peptides, Tables 4 and 5
Experimental: as §5, §6, §7

[8] = test system: Acanthamoeba polyphaga (trophozoites), Ros strain; test: Microtitre plate assay against Acanthamoeba trophozoites (Example 2); type: cell-based; conditions: for MATC = minimum amoebacidal trophozoite concentration: lowest concentration killing the trophozoite challenge
Excerpt: The test compounds were screened against the trophozoites of clinical isolates of Acanthamoeba spp. using a microtitre plate assay procedure. The organisms were Acanthamoeba polyphaga. (see for details on the strain and methodology used: Hughes, R. & Kilvington, S. (2001). A comparison of hydrogen peroxide contact lens disinfection systems and solutions against Acanthamoeba polyphaga. Antimicrob. Agents Chemother. 45: 2038-2043.) Acanthamoeba polyphaga Ros strain was used throughout the study. The strain was originally isolated from an unpublished case of acanthamoeba keratitis in the United Kingdom in 1994.
Use of the microliter plate assay enabled the determination of the minimum amoebacidal trophozoite concentration (MATC), which is the minimum amoebacidal trophozoite concentration (μg/ml)=lowest concentration killing the trophozoite challenge […] and also the minimum inhibitory trophozoite concentration (MITC), which is the minimum inhibitory trophozoite concentration (μg/ml)=lowest concentration stopping the trophozoites from dividing or killing about 50% of population. The values may then be used to select drug concentrations for use in time-kill experiments to study the kinetics of Acanthamoeba killing.

P. berghei sporozoites = test: Sporozoite development assay in Hepa 1-6 cells (Example 5); type: cell-based, Plasmodium berghei; conditions: for inhibition of entry of P. berghei into Hep 1-6 cells: sporozoites pre-incubated with polypeptide at 50 μg/ml, plated on cells with peptide present, FIG. 5(A)
Experimental: 3-5 day-old Anopheles stephensi mosquitoes were fed on anesthetized P. berghei (NK65)-infected Swiss Webster mice which had been checked by blood smear for the abundance of gametocyte-stage parasites. Salivary gland sporozoites were harvested on days 18 to 21 post-infective blood meal. The mosquitoes were rinsed in 70% ethanol and washed in Dulbecco's Modified Eagle Medium (DMEM) before salivary gland dissection. The glands were gently ground, spun at 80×g for 3 min to remove mosquito debris and sporozoites counted in a hemocytometer.
Hepa 1-6 cells (ATCC CRL-1830, American Type Culture Collection, Manassas, Va.), a mouse hepatoma cell line permissive for P. berghei sporozoite development were seeded (8×10^4 cells/well) in Lab-Tek permanox chamber slides (Nalgene Nunc Corp., Naperville, Ill.) and grown until confluent. On the day of the experiment, sporozoites were dissected from mosquitoes and pre-incubated with Dulbecco's Modified Eagle Medium (DMEM; Invitrogen, Carlsbad, Calif.) with 1% BSA alone or with the indicated polypeptide at 50 μg/ml for 1 hr at 28° C. and plated on cells in the continued presence of the inhibitor in DMEM containing 10% fetal calf serum (complete medium). After 1 hr at 37° C., the medium containing unattached sporozoites and polypeptide was removed and replaced with complete medium. […] The number of EEFs in each well were counted with a 40× objective on a Nikon fluorescent microscope. In other experiments, Hepa1-6 cells were pretreated with the polypeptides at 50 μg/ml in complete medium for 1 hour, washed and then sporozoites were added in complete medium without polypeptide and the assay was continued as outlined above.

[9] = test system: Candida albicans (CA), clinical isolate; test: Antifungal MIC (Example 4); type: cell-based; conditions: peptides, Tables 4 and 5
Experimental: as §5, §6, §7

fungi = type: cell-based
Experimental: as §1, §2
The bacterium S. aureus was tested with each of the peptides as a control. […] RPMI is standard Roswell Park Memorial Institute medium (Morton, H. C., (1970) A survey of Commercially Available Tissue Culture Media. In Vitro 6: 89-108).
as §4, §7

bacteria = conditions: reported by Azuma et al., Peptides 21: 327-330 (2000); cited from earlier work

Molecule	MIC [1]	MIC ([2]; clinical isolate)	MIC values (>80% reduction) FS3 (Fusarium solani 3 (FS3))	MIC ([3]; 6862 (clinical isolate, 24 h))	MATC = minimum amoebacidal trophozoite concentration [8]	MIC ([4]; Oxford strain, 24 h)	MIC values (>80% reduction) FS1 (Fusarium solani 1 (FS1))	MIC values (>80% reduction) FS4 (Fusarium solani 4 (FS4))	inhibition of entry of P. berghei into Hep 1-6 cells (P. berghei sporozoites)	MIC values (>80% reduction) CA [9]	MIC [5]	MIC [6]	MIC ([7]; AF293 (NCPF7367, 48 h))	MIC values (>80% reduction) AF [7]	MIC values (>80% reduction) FS2 (Fusarium solani 2 (FS2))	antibacterial activity (in words) (bacteria)	further results
C[C@@H]1[C@H](O)[C@@H](C)/C=C/C=C/C=C/C=C/C=C/C=C/C=C/[C@H](O[C@@H]2O[C@H](C)[C@@H](O)[C@H](N)[C@@H]2O)C[C@@H]2O[C@](O)(C[C@@H](O)C[C@@H](O)[C@H](O)CC[C@@H](O)C[C@@H](O)CC(=O)O[C@H]1C)C[C@H](O)[C@H]2C(=O)O [Amphotericin B, reference compound]																	MIC ([1]; Aspergillus terreus, RPMI, >80% reduction, read-out: MIC): 1.25 µg/mL; MIC ([2]; Aspergillus niger, RPMI, >80% reduction, read-out: MIC): 0.15 µg/mL; MIC values (>80% reduction) FS3, positive control (Fusarium solani 3 (FS3); Amphotericin B, third of five values, unit not given): 0.3; MIC ([3]; Candida albicans, C. albicans 6862, RPMI, read after 24 hrs, >80% reduction in growth, read-out: MIC): 0.6 µg/mL; MIC ([4]; Staphylococcus aureus, Staph aureus (Oxford), Isosensitest broth, 24 hrs, read-out: MIC): > 40 µg/mL; MIC values (>80% reduction) FS1, positive control (Fusarium solani 1 (FS1); Amphotericin B, first of five values, unit not given): 0.15; MIC values (>80% reduction) FS4, positive control (Fusarium solani 4 (FS4); Amphotericin B, fourth of five values, unit not given): 0.15; MIC ([5]; read-out: MIC): 1.25 µg/mL; MIC ([6]; read-out: MIC): 2.5 µg/mL; MIC values (>80% reduction) AF, positive control ([7]; Amphotericin B, fifth of five values, unit not given): 0.04; MIC ([7]; NCPF7367, Aspergillus fumigatus, RPMI, read after 48 hrs, >80% reduction, read-out: MIC): 0.6 µg/mL; MIC values (>80% reduction) FS2, positive control (Fusarium solani 2 (FS2); Amphotericin B, second of five values, unit not given): 1.25
Ac-LRKLRKRLLLRKLRKRLL-NH2 [MU_10]	>40 µM	>40 µM	2.5 µM	>40 µM	207.1 µM	>40 µM	2.5 µM	5 µM	inhibit entry of P. berghei into Hep 1-6 cells	>40 µM	>40 µM	10 µM	>40 µM	>40 µM	5 µM		
Ac-WRKWRKRLLLRKLRKRLL-NH2 [MU_114]	>40 µM	20 µM		>40 µM		40 µM					40 µM	5 µM	>40 µM				MATC = minimum amoebacidal trophozoite concentration ([8]; listed as MU 114): 98.7 µM; MATC = minimum amoebacidal trophozoite concentration ([8]; listed as MU114): 93.8 µM; antifungal activity (in words) (fungi; overall statement on the fungi tested): showed antifungal activity
Ac-WRKWRKRWWWRKWRKRWW-NH2 [MU_4]	>40 µM	1.25 µM	0.3 µM	10 µM	41.7 µM	5 µM	0.3 µM	0.3 µM	inhibit entry of P. berghei into Hep 1-6 cells	2.5 µM	10 µM	2.5 µM	2.5 µM	1.25 µM	0.3 µM		MITC = minimum inhibitory trophozoite concentration ([8]; lowest concentration stopping trophozoites dividing or killing about 50% of population): 20.8 µM; IC50 (fungi; fungus not specified, read-out: IC50 value for inhibiting fungal growth): ≤ 2500 nM; block of P. berghei entry after pretreatment of cells (P. berghei sporozoites; cells treated with peptide at 50 μg/ml for 1 hour, washed, then sporozoites added, FIG. 5(B)): retained its ability to block P. berghei entry
apoE134-151: Azuma's apolipoprotein E peptide, 18 amino acids in length (RVRLASHLRKLRKRLLRD; UniProt P02649 152-169, looked up, fragment)																no activity at all	
apoE134-155: Azuma's apolipoprotein E peptide, 22 amino acids in length (RVRLASHLRKLRKRLLRDADDL; UniProt P02649 152-173, looked up, fragment)																very low antibacterial activity	
